Legend:
[1] = Soil mobility of herbicides, uptake by concentric PDMS rings; type: physicochemical; settings: 7 days after application, sandy loam soil, moisture content 26.3%
Description: The soil mobility of various herbicides were examined in sandy loam soil with a moisture content of 26.3%. Three concentric PDMS (polydimethyl siloxane) rings having diameters of 2, 4 and 6 cm, respectively were placed in the soil at three different depths at 0.5 cm apart. 1 ml of a herbicide solution is injected in the center of the rings. The uptake of the herbicide by the rings were analysed 7 days after herbicide application.

[2] = system: weeds; assay: Field weed control by clomazone-treated wheat seeds; type: in vivo; settings: field at Möhlin, 64 days after planting
Description: Two different types of wheat seeds were used, i.e. Match and Steme. The treated wheat seeds were sown in the field (at Möhlin in Swtzerland). 64 days after planting the control of weeds was analysed.

[3] = uptake by PDMS ring of 2 cm diameter
[4] = uptake by PDMS ring of 4 cm diameter

Row | Structure (SMILES) | Percentage of totally applied herbicide (%) [1, 3] | Percentage of totally applied herbicide (%) [1, 4] | Weed control (%) ([2]; wheat seed type Match) | Weed control (%) ([2]; wheat seed type Steme) | Percentage of totally applied herbicide (%) ([1]; uptake by PDMS ring of 6 cm diameter)
1 | CCCN(CCC)c1c([N+](=O)[O-])cc(C(F)(F)F)cc1[N+](=O)[O-] [Trifluralin] | 0.62% | 0.02% |  |  | 
2 | CCOCN(C(=O)CCl)c1c(C)cccc1CC [Acetochlor] | 0.14% |  |  |  | 
3 | CC1(C)CON(Cc2ccccc2Cl)C1=O [Clomazone] | 0.36% |  | 95% | 95% | 
4 | CCCN(CCC)C(=O)SCC [EPTC] | 12.70% | 5.56% |  |  | 0.97%
5 | CCc1cccc(C)c1N(C(=O)CCl)[C@@H](C)COC [S-metalochlor] | 0.11% |  |  |  | 
